Test results taken from patent US6355799B1, “Substituted benzene compounds, process for their preparation, and herbicidal and defoliant compositions containing them” (ISK Americas Incorporated, priority 1997, dated 2002).

Tests used:
Assay type in all cases: in vivo
[1] = test system: field corn (Zea mays L., var. Dekalb 535, CORN); assay: Post-emerge test, crop safety; conditions: post-emerge, 14 days after application, rating scale 0-100
Summary of the method: (§1)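 Compounds in acetone were track-sprayed at 187 l/ha, 15–1000 g ai/ha, onto sandy loam pots. Pre-emerge seeds were sown one day before spraying, with surface watering afterwards. Post-emerge plants were at the 2–3 leaf stage and sprayed with 0.25% v/v non-ionic surfactant. Injury was rated 0–100 at 14 days.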

[2] = test system: upland rice (Oryza sp., var. Tebonnet, RICE); assay: Post-emerge test, crop safety; conditions: post-emerge, 14 days after application, rating scale 0-100
Summary of the method: as §1

[3] = test system: lambsquarters (Chenopodium album, CHEAL); assay: Pre-emerge test, greenhouse herbicide activity screening; conditions: pre-emerge, 14 days after application, rating scale 0-100
Summary of the method: as §1

[4] = test system: green foxtail (Setaria viridis, SETVI); assay: as above; conditions: pre-emerge, 14 days after application, rating scale 0-100
Summary of the method: as §1

[5] = test system: velvetleaf (Abutilon theophrasti, ABUTH); assay: as above; conditions: pre-emerge, 14 days after application, rating scale 0-100
Summary of the method: as §1

[6] = test system: sicklepod (Cassia obtusifolia, CASOB); assay: as above; conditions: pre-emerge, 14 days after application, rating scale 0-100
Summary of the method: as §1

[7] = test system: ivyleaf morningglory (Ipomoea hederacea, IPOHE); assay: as above; conditions: pre-emerge, 14 days after application, rating scale 0-100
Summary of the method: as §1

[8] = test system: barnyardgrass (Echinochloa crus-galli, ECHCG); assay: as above; conditions: pre-emerge, 14 days after application, rating scale 0-100
Summary of the method: as §1

[9] = test system: large crabgrass (Digitaria sanguinalis, DIGSA); assay: as above; conditions: pre-emerge, 14 days after application, rating scale 0-100
Summary of the method: as §1

[10] = test system: redroot pigweed (Amaranthus retroflexus, AMARE); assay: as above; conditions: pre-emerge, 14 days after application, rating scale 0-100
Summary of the method: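 Compounds in acetone were track-sprayed at 15-1000 g ai/ha (187 l/ha) on sandy loam pots: pre-emerge one day after seeding, post-emerge at 2-3 leaf stage with 0.25% v/v non-ionic surfactant. Phytotoxicity was rated 14 days later on a 0 (no damage) to 100 (complete death) scale.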

[11] = test system: redroot pigweed (Amaranthus retroflexus, AMARE); assay: Post-emerge test, greenhouse herbicide activity screening; conditions: post-emerge, 14 days after application
Summary of the method: (§2)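 Plants grown in 10 cm pots of sandy loam mix received acetone-dissolved compounds through a moving flat-fan nozzle. Doses ranged from 15 to 1000 g ai/ha. Pre-emerge pots were seeded one day earlier, post-emerge pots 8–21 days earlier. Fourteen days on, each pot was graded 0–100 for damage.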

[12] = test system: lambsquarters (Chenopodium album, CHEAL); assay: as above; conditions: post-emerge, 14 days after application, rating scale 0-100
Summary of the method: as §2

[13] = test system: green foxtail (Setaria viridis, SETVI); assay: as above; conditions: post-emerge, 14 days after application, rating scale 0-100
Summary of the method: as §2

[14] = test system: velvetleaf (Abutilon theophrasti, ABUTH); assay: as above; conditions: post-emerge, 14 days after application, rating scale 0-100
Summary of the method: as §2

[15] = test system: sicklepod (Cassia obtusifolia, CASOB); assay: as above; conditions: post-emerge, 14 days after application, rating scale 0-100
Summary of the method: as §2

[16] = test system: ivyleaf morningglory (Ipomoea hederacea, IPOHE); assay: as above; conditions: post-emerge, 14 days after application, rating scale 0-100
Summary of the method: as §2

[17] = test system: barnyardgrass (Echinochloa crus-galli, ECHCG); assay: as above; conditions: post-emerge, 14 days after application, rating scale 0-100
Summary of the method: as §2

[18] = test system: large crabgrass (Digitaria sanguinalis, DIGSA); assay: as above; conditions: post-emerge, 14 days after application, rating scale 0-100
Summary of the method: as §2

[19] = test system: field corn (Zea mays L., var. Dekalb 535, CORN); assay: Pre-emerge test, crop safety; conditions: pre-emerge, 14 days after application, rating scale 0-100
Summary of the method: (§3)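 Rating: 0–100 visual injury, 14 DAA. Application: acetone, 187 l/ha, 15–1000 g ai/ha, flat-fan track sprayer with nozzle 40–45 cm above soil or canopy. Post-emerge runs used 0.25% v/v surfactant on 2–3 leaf plants.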

[20] = test system: upland rice (Oryza sp., var. Tebonnet, RICE); assay: Pre-emerge test, crop safety; conditions: pre-emerge, 14 days after application, rating scale 0-100
Summary of the method: as §3

COc1c(Cl)cc(F)c(-n2c(=O)cc(C(F)(F)F)n(C)c2=O)c1NNC(=O)c1ccc2ccccc2c1 [15-5]
30: Post-emerge Herbicidal Activity DIGSA (phytotoxicity rating) ([18]; 63 g ai/ha)
70: Post-emerge Herbicidal Activity CORN (crop damage rating) ([1]; 63 g ai/ha) | phytotoxicity rating ECHCG ([8]; 63 g ai/ha) | Post-emerge Herbicidal Activity AMARE (phytotoxicity rating) ([11]; 63 g ai/ha, rating scale 0-100 (0 no damage, 100 complete death)) | Post-emerge Herbicidal Activity DIGSA (phytotoxicity rating) ([18]; 250 g ai/ha) | phytotoxicity rating RICE ([20]; 63 g ai/ha)
99: phytotoxicity rating ECHCG ([8]; 250 g ai/ha) | phytotoxicity rating CORN ([19]; 250 g ai/ha) | phytotoxicity rating RICE ([20]; 250 g ai/ha)
60: Post-emerge Herbicidal Activity RICE (crop damage rating) ([2]; 63 g ai/ha)
90: Post-emerge Herbicidal Activity CORN (crop damage rating) ([1]; 250 g ai/ha) | Post-emerge Herbicidal Activity RICE (crop damage rating) ([2]; 250 g ai/ha) | Post-emerge Herbicidal Activity IPOHE (phytotoxicity rating) ([16]; 63 g ai/ha) | Post-emerge Herbicidal Activity ECHCG (phytotoxicity rating) ([17]; 250 g ai/ha)
80: Post-emerge Herbicidal Activity SETVI (phytotoxicity rating) ([13]; 250 g ai/ha) | Post-emerge Herbicidal Activity CASOB (phytotoxicity rating) ([15]; 250 g ai/ha) | phytotoxicity rating CORN ([19]; 63 g ai/ha)
40: Post-emerge Herbicidal Activity SETVI (phytotoxicity rating) ([13]; 63 g ai/ha) | Post-emerge Herbicidal Activity CASOB (phytotoxicity rating) ([15]; 63 g ai/ha) | Post-emerge Herbicidal Activity ECHCG (phytotoxicity rating) ([17]; 63 g ai/ha)
100: phytotoxicity rating CHEAL ([3]; 63 g ai/ha) | phytotoxicity rating CHEAL ([3]; 250 g ai/ha) | phytotoxicity rating SETVI ([4]; 63 g ai/ha) | phytotoxicity rating SETVI ([4]; 250 g ai/ha) | phytotoxicity rating ABUTH ([5]; 63 g ai/ha) | phytotoxicity rating ABUTH ([5]; 250 g ai/ha) | phytotoxicity rating CASOB ([6]; 63 g ai/ha) | phytotoxicity rating CASOB ([6]; 250 g ai/ha) | phytotoxicity rating IPOHE ([7]; 63 g ai/ha) | phytotoxicity rating IPOHE ([7]; 250 g ai/ha) | phytotoxicity rating DIGSA ([9]; 63 g ai/ha) | phytotoxicity rating DIGSA ([9]; 250 g ai/ha) | phytotoxicity rating AMARE ([10]; 63 g ai/ha) | phytotoxicity rating AMARE ([10]; 250 g ai/ha) | Post-emerge Herbicidal Activity AMARE (phytotoxicity rating) ([11]; 250 g ai/ha, rating scale 0-100) | Post-emerge Herbicidal Activity CHEAL (phytotoxicity rating) ([12]; 63 g ai/ha) | Post-emerge Herbicidal Activity CHEAL (phytotoxicity rating) ([12]; 250 g ai/ha) | Post-emerge Herbicidal Activity ABUTH (phytotoxicity rating) ([14]; 63 g ai/ha) | Post-emerge Herbicidal Activity ABUTH (phytotoxicity rating) ([14]; 250 g ai/ha) | Post-emerge Herbicidal Activity IPOHE (phytotoxicity rating) ([16]; 250 g ai/ha)
